How the values were obtained:
[1] = biological target: Beta-secretase 1 (Homo sapiens) (UniProt P56817); assay: BACE-1 Cerep selectivity data (BI); details: Compound concentration 20.0 uM
[2] = biological target: D(3) dopamine receptor (Homo sapiens) (UniProt P35462); assay: D3/H Cerep selectivity data (BI); details: Compound concentration 20.0 uM
[3] = biological target: Peroxisome proliferator-activated receptor gamma (Homo sapiens) (UniProt P37231); assay: PPARG/H AG Cerep selectivity data (BI); details: filed as agonist, Compound concentration 20.0 uM
[4] = biological target: ATP-sensitive inward rectifier potassium channel 1 isoform X1 (Mesocricetus auratus) (UniProt A0A1U8CU73); assay: K+/KATP/HA Eurofins-Panlabs selectivity data (BI); details: Compound concentration 10.0 uM
[5] = biological target: Androgen receptor (Rattus norvegicus) (UniProt P15207); assay: TESTOST/RA Eurofins-Panlabs selectivity data (BI); details: Compound concentration 10.0 uM
[6] = biological target: Bone morphogenetic protein receptor type-1A (Homo sapiens) (UniProt P36894); assay: BMPR1A(ALK3) Invitrogen selectivity data (BI); details: Compound concentration 3.0 uM
[7] = biological target: Serine/threonine-protein kinase B-raf (Homo sapiens) (UniProt P15056); assay: BRAF Invitrogen selectivity data (BI); details: Compound concentration 3.0 uM
[8] = biological target: Homeodomain-interacting protein kinase 3 (Homo sapiens) (UniProt Q9H422); assay: HIPK3 Invitrogen selectivity data (BI); details: Compound concentration 3.0 uM
[9] = biological target: T1, Tyrosine-protein kinase ITK/TSK (Homo sapiens) (UniProt Q08881); assay: ITK Invitrogen selectivity data (BI); details: Compound concentration 3.0 uM
T1 sequence (whole entry): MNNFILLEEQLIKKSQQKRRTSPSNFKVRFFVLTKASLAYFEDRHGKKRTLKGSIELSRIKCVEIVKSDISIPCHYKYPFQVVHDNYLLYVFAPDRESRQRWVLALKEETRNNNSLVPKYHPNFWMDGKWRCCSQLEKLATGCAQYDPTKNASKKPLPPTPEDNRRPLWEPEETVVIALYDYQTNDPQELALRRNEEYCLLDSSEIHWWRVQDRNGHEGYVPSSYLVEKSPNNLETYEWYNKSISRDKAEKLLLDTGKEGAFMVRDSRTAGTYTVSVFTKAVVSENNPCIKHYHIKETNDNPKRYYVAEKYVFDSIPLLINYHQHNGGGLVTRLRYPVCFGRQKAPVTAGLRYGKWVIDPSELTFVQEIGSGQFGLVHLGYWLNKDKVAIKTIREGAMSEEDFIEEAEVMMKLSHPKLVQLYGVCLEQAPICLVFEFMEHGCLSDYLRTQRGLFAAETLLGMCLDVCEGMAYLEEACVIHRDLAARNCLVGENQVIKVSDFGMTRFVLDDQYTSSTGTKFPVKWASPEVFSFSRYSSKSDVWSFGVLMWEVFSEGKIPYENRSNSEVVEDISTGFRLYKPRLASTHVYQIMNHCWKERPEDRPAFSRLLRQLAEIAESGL

[10] = biological target: Dual specificity mitogen-activated protein kinase kinase 1 (Homo sapiens) (UniProt Q02750); assay: MAP2K1 Invitrogen selectivity data (BI); details: Compound concentration 3.0 uM
[11] = biological target: T2, MAP/microtubule affinity-regulating kinase 4 (Homo sapiens) (UniProt Q96L34); assay: MARK4 Invitrogen selectivity data (BI); details: Compound concentration 3.0 uM
T2 sequence (whole entry): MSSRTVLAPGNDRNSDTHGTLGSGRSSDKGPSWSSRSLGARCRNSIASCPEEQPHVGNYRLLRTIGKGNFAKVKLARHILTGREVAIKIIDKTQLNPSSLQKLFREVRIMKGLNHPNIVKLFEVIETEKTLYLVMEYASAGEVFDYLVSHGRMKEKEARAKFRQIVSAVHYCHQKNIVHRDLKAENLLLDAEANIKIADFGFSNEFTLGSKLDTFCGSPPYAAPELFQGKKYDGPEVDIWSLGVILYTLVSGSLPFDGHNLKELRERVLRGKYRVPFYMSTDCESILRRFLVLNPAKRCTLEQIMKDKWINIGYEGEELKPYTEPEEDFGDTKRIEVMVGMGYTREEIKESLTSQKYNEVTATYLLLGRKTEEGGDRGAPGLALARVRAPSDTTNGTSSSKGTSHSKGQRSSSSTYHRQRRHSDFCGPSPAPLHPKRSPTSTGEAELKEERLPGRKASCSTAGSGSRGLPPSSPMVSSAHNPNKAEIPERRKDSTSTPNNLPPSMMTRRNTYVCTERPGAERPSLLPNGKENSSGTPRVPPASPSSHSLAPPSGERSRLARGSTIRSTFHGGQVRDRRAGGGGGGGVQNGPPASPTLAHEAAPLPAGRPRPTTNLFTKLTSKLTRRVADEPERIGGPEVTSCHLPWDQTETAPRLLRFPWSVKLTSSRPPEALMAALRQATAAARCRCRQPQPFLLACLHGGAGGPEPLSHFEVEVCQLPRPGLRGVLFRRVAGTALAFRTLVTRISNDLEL

[12] = biological target: Protein kinase C theta type (Homo sapiens) (UniProt Q04759); assay: PRKCQ Invitrogen selectivity data (BI); details: Compound concentration 3.0 uM
[13] = biological target: T3, Aurora kinase A (Homo sapiens) (UniProt O14965); assay: STK6 Invitrogen selectivity data (BI); details: Compound concentration 3.0 uM
T3 sequence (whole entry): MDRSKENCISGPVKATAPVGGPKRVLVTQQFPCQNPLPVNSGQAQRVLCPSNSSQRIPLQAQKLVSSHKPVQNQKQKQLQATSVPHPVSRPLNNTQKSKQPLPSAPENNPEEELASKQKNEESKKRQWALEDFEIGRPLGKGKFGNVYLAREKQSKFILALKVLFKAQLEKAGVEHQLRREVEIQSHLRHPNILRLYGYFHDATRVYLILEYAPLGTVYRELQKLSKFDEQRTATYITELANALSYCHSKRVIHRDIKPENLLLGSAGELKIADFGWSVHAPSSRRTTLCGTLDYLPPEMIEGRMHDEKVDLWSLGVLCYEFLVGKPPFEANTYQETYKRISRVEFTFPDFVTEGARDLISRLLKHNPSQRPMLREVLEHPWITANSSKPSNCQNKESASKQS

Measured: residual activity

Bone morphogenetic protein receptor type-1A (Homo sapiens), sequence (P36894 whole entry): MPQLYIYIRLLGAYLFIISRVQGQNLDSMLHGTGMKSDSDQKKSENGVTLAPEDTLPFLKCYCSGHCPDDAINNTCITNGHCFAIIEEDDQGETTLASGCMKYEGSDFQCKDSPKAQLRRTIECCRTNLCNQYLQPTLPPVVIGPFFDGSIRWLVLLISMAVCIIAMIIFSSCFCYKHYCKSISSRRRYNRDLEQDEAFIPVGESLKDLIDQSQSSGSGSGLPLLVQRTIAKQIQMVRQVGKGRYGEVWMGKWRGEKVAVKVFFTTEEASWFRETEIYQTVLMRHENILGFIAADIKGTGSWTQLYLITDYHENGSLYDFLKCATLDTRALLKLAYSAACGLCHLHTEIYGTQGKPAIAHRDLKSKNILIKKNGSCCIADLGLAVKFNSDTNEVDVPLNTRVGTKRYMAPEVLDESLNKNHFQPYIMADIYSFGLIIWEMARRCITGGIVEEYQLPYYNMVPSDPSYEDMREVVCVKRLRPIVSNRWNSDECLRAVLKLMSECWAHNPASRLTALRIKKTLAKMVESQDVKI
ATP-sensitive inward rectifier potassium channel 1 isoform X1 (Mesocricetus auratus), sequence (A0A1U8CU73 as listed by the source): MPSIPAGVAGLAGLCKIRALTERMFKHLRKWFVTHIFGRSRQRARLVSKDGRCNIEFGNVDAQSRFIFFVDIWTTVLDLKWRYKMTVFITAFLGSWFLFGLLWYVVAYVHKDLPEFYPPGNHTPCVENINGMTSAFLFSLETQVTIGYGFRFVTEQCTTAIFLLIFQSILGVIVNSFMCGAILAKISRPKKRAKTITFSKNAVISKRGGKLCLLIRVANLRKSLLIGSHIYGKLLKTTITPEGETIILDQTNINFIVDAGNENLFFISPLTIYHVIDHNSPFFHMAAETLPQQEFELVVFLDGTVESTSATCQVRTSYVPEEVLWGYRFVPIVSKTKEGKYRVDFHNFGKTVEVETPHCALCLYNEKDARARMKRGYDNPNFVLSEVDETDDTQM
Peroxisome proliferator-activated receptor gamma (Homo sapiens), sequence (P37231 whole entry, canonical isoform): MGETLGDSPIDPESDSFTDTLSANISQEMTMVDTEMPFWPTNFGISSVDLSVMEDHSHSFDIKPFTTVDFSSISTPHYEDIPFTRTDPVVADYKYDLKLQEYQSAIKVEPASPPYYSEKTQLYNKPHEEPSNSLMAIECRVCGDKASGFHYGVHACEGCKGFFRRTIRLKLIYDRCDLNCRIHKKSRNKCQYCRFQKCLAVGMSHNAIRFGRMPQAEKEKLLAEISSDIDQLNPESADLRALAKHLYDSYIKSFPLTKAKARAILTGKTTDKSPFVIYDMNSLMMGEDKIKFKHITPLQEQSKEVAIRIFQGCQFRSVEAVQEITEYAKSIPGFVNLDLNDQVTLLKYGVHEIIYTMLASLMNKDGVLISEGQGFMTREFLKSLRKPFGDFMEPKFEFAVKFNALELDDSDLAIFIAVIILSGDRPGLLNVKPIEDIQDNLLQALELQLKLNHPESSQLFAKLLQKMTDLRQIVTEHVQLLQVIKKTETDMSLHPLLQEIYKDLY
Androgen receptor (Rattus norvegicus), sequence (P15207 whole entry S389L): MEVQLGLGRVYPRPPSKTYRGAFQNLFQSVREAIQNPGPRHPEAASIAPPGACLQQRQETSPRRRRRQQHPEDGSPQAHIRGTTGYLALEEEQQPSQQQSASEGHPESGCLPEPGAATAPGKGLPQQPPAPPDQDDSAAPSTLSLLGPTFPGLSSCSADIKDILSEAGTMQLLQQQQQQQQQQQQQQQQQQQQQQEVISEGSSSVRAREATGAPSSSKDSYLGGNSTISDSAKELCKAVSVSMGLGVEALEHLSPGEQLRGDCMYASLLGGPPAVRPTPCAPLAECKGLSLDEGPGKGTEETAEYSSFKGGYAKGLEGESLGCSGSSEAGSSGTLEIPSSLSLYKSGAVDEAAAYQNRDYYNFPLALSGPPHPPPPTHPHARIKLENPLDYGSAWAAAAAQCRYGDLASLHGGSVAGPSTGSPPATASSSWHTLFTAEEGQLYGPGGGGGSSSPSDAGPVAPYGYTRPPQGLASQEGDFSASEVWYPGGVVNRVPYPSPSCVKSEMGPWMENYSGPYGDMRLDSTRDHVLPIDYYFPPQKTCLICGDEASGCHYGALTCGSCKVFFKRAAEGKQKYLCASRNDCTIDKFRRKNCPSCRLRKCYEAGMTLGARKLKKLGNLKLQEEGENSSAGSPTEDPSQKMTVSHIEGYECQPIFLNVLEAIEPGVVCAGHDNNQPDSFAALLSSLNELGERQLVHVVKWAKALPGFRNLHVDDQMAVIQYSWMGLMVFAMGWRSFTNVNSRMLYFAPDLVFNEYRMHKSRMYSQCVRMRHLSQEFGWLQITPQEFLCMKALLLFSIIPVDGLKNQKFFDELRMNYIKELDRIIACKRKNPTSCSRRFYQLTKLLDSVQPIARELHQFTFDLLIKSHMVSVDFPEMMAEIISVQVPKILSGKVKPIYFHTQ
Serine/threonine-protein kinase B-raf (Homo sapiens), sequence (P15056 whole entry): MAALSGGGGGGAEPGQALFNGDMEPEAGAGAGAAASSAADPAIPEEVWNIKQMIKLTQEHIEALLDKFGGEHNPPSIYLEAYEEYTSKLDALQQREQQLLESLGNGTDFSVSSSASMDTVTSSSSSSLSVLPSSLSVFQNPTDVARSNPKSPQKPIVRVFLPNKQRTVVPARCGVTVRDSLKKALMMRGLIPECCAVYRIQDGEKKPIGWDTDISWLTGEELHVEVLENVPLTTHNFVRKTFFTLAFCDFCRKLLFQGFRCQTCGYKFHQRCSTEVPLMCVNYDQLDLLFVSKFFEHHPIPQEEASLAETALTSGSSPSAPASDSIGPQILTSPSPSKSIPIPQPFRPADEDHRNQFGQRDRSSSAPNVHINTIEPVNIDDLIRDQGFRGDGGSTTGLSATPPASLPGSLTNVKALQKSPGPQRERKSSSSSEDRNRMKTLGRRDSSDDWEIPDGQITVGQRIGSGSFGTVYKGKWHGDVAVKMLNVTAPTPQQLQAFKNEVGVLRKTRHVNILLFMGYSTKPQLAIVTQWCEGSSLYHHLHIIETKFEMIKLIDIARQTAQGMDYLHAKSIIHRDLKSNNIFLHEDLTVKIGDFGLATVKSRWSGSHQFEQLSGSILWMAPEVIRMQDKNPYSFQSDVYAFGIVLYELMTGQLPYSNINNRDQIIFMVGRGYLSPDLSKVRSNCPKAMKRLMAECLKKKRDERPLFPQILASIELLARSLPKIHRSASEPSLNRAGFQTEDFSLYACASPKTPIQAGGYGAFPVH
D(3) dopamine receptor (Homo sapiens), sequence (P35462 whole entry): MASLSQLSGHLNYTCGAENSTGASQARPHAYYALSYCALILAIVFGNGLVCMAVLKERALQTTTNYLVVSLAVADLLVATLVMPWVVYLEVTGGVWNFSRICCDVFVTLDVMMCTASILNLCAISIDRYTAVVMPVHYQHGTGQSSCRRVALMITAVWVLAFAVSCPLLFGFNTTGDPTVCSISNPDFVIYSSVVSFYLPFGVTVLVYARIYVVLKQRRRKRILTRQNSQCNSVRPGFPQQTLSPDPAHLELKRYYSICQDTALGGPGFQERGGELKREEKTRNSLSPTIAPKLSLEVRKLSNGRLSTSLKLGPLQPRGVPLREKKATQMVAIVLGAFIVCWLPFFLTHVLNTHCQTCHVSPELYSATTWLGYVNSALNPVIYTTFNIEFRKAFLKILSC
Protein kinase C theta type (Homo sapiens), sequence (Q04759 whole entry, looked up): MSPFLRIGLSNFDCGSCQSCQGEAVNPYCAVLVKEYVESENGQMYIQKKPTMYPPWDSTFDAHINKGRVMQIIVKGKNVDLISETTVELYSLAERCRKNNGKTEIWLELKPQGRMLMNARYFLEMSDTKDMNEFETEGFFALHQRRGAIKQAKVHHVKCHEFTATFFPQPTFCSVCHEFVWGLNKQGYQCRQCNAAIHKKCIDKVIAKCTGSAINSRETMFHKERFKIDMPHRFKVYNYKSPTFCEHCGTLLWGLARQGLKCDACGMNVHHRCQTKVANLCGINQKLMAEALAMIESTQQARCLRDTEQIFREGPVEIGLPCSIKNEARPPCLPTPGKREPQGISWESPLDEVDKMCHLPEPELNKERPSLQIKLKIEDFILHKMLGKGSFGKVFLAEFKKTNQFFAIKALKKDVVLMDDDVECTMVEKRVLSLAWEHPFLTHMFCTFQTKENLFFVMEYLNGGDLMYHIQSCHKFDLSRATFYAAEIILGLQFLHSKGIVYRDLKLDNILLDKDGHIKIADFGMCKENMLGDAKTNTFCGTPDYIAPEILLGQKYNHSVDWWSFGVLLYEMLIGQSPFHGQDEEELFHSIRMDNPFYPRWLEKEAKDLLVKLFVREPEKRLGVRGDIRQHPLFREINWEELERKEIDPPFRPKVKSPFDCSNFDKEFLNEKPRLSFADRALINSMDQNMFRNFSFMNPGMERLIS
Dual specificity mitogen-activated protein kinase kinase 1 (Homo sapiens), sequence (Q02750 whole entry): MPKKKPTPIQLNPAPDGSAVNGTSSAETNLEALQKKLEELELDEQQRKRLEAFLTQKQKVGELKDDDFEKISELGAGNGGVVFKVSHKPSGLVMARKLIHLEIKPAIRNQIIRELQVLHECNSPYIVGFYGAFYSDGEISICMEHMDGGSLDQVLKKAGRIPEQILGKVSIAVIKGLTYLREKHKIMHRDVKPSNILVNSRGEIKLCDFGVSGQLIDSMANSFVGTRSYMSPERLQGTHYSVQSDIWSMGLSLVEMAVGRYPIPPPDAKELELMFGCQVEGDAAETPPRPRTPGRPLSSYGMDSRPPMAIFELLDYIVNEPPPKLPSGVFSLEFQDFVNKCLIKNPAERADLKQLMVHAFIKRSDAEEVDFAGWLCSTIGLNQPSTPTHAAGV

CN(C)C(=O)Cn1cc(-c2nc([C@@](C)(c3ccc(-c4cnc(N)nc4)cc3)C3CC3)no2)cn1 [BI 665915]
inactive: [1] 102% | [2] 100% | [3] 93% | [4] 97% | [5] 99% | [6] 87% | [7] 95% | [8] 99% | [9] 94% | [10] 98% | [11] 104% | [12] 93.5% | [13] 75.5%

— ChEMBL document CHEMBL4507276 (2021)
